Values quoted from earlier work in PMC12901815 (Environmental Analysis, Health and Toxicology, 2025).

Details: male Alderley Park rats, oral administration; cited from earlier work

polyaminopropylbiguanide [PHMB]
tissue distribution of radioactivity: the highest radioactivity occurred in adipose tissue, followed by kidneys and liver, without detectable brain accumulation
